Some results are limits rather than exact numbers.

Holding throughout (type): cell-based
The subject of one assay is DU145. Nature of the assay: Cellular growth inhibition assay (MTT), DU145 cells. The conditions noted are these: Homo sapiens, DU-145, 40 hr incubation, read-out: DU145: growth inhibitory activity. The method, then:
(§1) Cell suspensions were prepared by harvesting cells from culture. (Cells used in this test should be in later log phase growth and high viability.) Cells were diluted in correct growth medium to 1.1×final concentration (from 50000 cell/mL to 200,000 cell/mL, depending on cell line).
(§2) Compounds to be tested were added (10 μL, 10×final concentration) to a flat bottom 96-well plate. The cellular suspension (90 μL per well) was added, and the plate incubated for 40 hr at 37° C., 5% CO2. MTT (20 μL per well, 5 mg/mL in PBS) was added and the plates were returned to the incubator for a further 6 hours. Lysis buffer (100 μL per well, 10% SDS, 0.01N HCl) was added and the plate stored in the incubator overnight. The plate was then read at 590 nm.

In another assay the target is T1, Tel-Jak3 (Homo sapiens, UniProt P52333).
T1 construct: TEL (ETV6, human P41212) N-terminal part encoded by nucleotides 1-487 of TEL; expressed in transfected cells; host or cells: BaF3 (murine) bearing pTET-off, transfected with pTELJAK3 (pTRE2 vector); the other entry of the earlier key: ETV6 (P41212, Transcription factor ETV6)
Nature of the assay: Cellular growth inhibition assay (MTT), Tel-Jak3 transformed BaF3 cell line. The conditions noted are these: 40 hr incubation, read-out: Jak3: growth inhibitory activity (>50%) in transformed cell line Tel-Jak3.
Text: (§3) The coding region encompassing nucleotides 1–487 of TELwas amplified by PCR using the oligonucleotides 5TEL (5′-GGAGGATCCTGATCTCTCTCGCTGTGAGAC-3′) and 3TEL (5′-AGGC GTCGACTTCTTCTTCATGGTTCTG-3′) and U937 mRNA as template. A BamHI site was present into the 5TEL Primer, a SalI site was incorporated into the 3TEL primer. The regions encompassing the kinase domains of JAK2 (nucleotides 2994–3914; JAK2F 5′-ACGC GTCGACGGTGCCTTTGAAGACCGGGAT-3′; JAK2R 5′-ATAGTTTAGCGGCCGCTCAGAATGAAGGTCATTT-3′) and JAK3 (nucleotides 2520–3469; JAK3F 5′-GAAGTCGACTATGCCTGCCAAGACCCCACGATCTT-3′; JAK3R 5′-GGATCTAGACTATGAAAAGGACAGGGAGTGGTGTTT-3′) were generated by PCR using Taq DNA Polymerase (Gibco/BRL) and U937 mRNA as template. A SalI site was incorporated into the forward primer of JAK2 and JAK3, a NotI site was incorporated into the JAK2 reverse primer and a Xba I site was added to the reverse primer of JAK3.
(§4) A TEL/Jak2 fusion was generated by digestion of the TELPCR product with BamHI/SalI, digestion of the JAK2 PCR product with SalI/NotI followed by ligation and subcloning into the mammalian expression Vector pTRE 2 (Clontech) digested with BamHI-NotI (pTELJAK2). For JAK3 SalI/NotI cleaved kinase domain PCR product was ligated with BamHI/SalI cleaved TELproduct followed by ligation into BamHI/NotI cleaved pTRE2 (pTELJAK3).
(§5) The growth factor dependent myelomonocytic cell line BaF3 bearing the pTET-off plasmid (Clontech) was transfected with either pTELJAK2 or pTELJAK3 and the cells selected for factor independent growth. BaF 3 wild type cells were cultured in DMEM 10% FCS, 10% WEHI 3B conditioned medium. BaF3 TELJAK cells were cultured in DMEM 10% Tet-System Approved FBS (without WEHI 3B conditioned medium).
as §1, §2

The next assay deals with T2, Tel-Jak2 (Homo sapiens, UniProt O60674).
T2 construct: The regions encompassing the kinase domains of JAK2 (nucleotides 2994–3914); TEL (ETV6, human P41212) N-terminal part encoded by nucleotides 1-487 of TEL; expressed in transfected cells; host or cells: BaF3 (murine) bearing pTET-off, transfected with pTELJAK2 (pTRE2 vector); the other entry of the earlier key: ETV6 (P41212, Transcription factor ETV6)
Kind of assay: Cellular growth inhibition assay (MTT), Tel-Jak2 transformed BaF3 cell line. The conditions noted are these: 40 hr incubation, read-out: Jak2: growth inhibitory activity (>50%) in transformed cell line Tel-Jak2.
Text: as §3, §4, §5, §1, §2

T1 sequence (P52333 with tags, fused parts or gaps): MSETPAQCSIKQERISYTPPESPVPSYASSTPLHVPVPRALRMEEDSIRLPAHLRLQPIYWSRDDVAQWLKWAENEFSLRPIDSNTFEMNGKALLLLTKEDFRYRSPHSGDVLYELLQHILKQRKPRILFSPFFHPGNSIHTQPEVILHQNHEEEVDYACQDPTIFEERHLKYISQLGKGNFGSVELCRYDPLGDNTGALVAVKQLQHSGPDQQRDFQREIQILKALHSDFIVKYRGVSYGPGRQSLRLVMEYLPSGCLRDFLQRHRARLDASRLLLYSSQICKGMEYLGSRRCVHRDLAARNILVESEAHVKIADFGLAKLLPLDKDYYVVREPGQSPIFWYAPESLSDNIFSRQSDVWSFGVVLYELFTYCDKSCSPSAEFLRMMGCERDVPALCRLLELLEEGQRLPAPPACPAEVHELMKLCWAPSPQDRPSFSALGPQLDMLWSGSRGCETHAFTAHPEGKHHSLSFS
T2 sequence (O60674 with tags, fused parts or gaps): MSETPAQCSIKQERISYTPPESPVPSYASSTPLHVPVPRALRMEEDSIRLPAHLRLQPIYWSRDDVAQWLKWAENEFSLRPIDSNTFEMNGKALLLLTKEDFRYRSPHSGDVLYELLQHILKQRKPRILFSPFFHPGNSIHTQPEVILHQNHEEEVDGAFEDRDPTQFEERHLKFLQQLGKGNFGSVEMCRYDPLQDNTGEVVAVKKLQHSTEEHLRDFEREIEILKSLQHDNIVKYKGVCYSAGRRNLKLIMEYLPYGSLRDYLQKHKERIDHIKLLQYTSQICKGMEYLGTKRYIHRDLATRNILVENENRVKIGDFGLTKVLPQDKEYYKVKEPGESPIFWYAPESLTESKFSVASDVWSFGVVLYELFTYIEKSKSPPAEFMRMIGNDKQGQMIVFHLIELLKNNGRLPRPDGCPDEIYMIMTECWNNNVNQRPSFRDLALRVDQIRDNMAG

For `COc1cc(-c2cncc(Nc3cc(Cl)ccc3C)n2)ccc1O` [Chemistry 130], the inhibition at 50 µM in the assay on DU145 was over 50%; at Tel-Jak3, under 50%; on Tel-Jak2, over 50%.
Take `COc1cc(-c2cncc(NC(C)c3ccc(C(=O)NCc4cccnc4)cc3)n2)ccc1O` (stereo not drawn) [Chemistry 372]: the figures for the inhibition at 50 µM in the assay with DU145, at Tel-Jak3 and on Tel-Jak2 were under 50%, over 50% and over 50%, respectively.
On to `C[C@H](Nc1cncc(-c2ccc(N)cc2)n1)c1ccccc1` [Chemistry 181], for which the values for the inhibition at 50 µM in the assay on DU145, at Tel-Jak3 and at Tel-Jak2 were under 50%, over 50% and over 50%, respectively.
For the molecule `COc1cc(-c2cncc(NC(C)c3ccc(NC(=O)N4CCN(C)CC4)cc3)n2)ccc1O` (stereo not drawn) [Chemistry 283], the inhibition at 50 µM in the assay with DU145, on Tel-Jak3 and at Tel-Jak2 was over 50% throughout.
Consider `COc1cc(-c2cncc(NC(C)c3cccc(NC(=O)c4ccncc4)c3)n2)ccc1O` (stereo not drawn) [Chemistry 269], for which the inhibition at 50 µM with DU145, at Tel-Jak3 and at Tel-Jak2 was over 50% each time.
Consider `COc1cc(-c2cncc(NC(C)c3cccnc3)n2)ccc1O` (stereo not drawn) [Chemistry 187], for which the inhibition at 50 µM with DU145, at Tel-Jak3 and at Tel-Jak2 was over 50% in each case.
As for `COc1cc(-c2cncc(NC(C)c3ccc(C#N)cc3)n2)ccc1O` (stereo not drawn) [Chemistry 303], the inhibition at 50 µM in the assay with DU145 was under 50%; at Tel-Jak3 it was over 50%; at Tel-Jak2 it was over 50%.
As for `COc1cc(-c2cncc(NC(C)c3cccc(NC(C)=O)c3)n2)ccc1O` (stereo not drawn) [Chemistry 276], the inhibition at 50 µM with DU145 was under 50%; on Tel-Jak3 it was over 50%; at Tel-Jak2, over 50%.
For the molecule `COc1cccc([C@H](C)Nc2cncc(-c3ccc(O)c(OC)c3)n2)c1` [Chemistry 158], the inhibition at 50 µM with DU145, at Tel-Jak3 and at Tel-Jak2 was over 50% in each case.
Consider `COc1cc(-c2cncc(NCc3ccco3)n2)ccc1O` [Chemistry 141], for which the inhibition at 50 µM in the assay with DU145, at Tel-Jak3 and at Tel-Jak2 was over 50% each time.
In the case of `COc1ccc([C@H](C)Nc2cncc(-c3ccc(O)c(OC)c3)n2)cc1` [Chemistry 117], the inhibition at 50 µM with DU145 was under 50%; on Tel-Jak3, over 50%; at Tel-Jak2, over 50%.
`C[C@H](Nc1cncc(-c2ccc(NS(=O)(=O)c3ccccc3)cc2)n1)c1ccccc1` [Chemistry 226]: the inhibition at 50 µM in the assay on DU145, at Tel-Jak3 and at Tel-Jak2 was over 50% throughout.
As for `COc1cc(-c2cncc(Nc3ccc(F)cc3C)n2)ccc1O` [Chemistry 156], the inhibition at 50 µM was under 50% in the assay with DU145, over 50% on Tel-Jak3 and over 50% at Tel-Jak2.
Take `COc1cc(-c2cncc(NC(C)c3ccc(-n4ccnc4)cc3)n2)ccc1O` (stereo not drawn) [Chemistry 186]: the inhibition at 50 µM with DU145 was under 50%; on Tel-Jak3, over 50%; on Tel-Jak2 it was over 50%.
With `C[C@H](Nc1cncc(-c2ccc(F)c(Cl)c2)n1)c1ccccc1` [Chemistry 174], the inhibition at 50 µM in the assay on DU145 is under 50%; on Tel-Jak3, over 50%; at Tel-Jak2, over 50%.
Consider `COc1cc(-c2cncc(NC(C)c3cccc(NC(=O)N4CCN(C)CC4)c3)n2)ccc1O` (stereo not drawn) [Chemistry 241], for which the inhibition at 50 µM in the assay on DU145 was under 50%; on Tel-Jak3, over 50%; at Tel-Jak2 it was over 50%.
As to `COc1cc(-c2cncc(NC(C)c3cccc(NC(=O)C4CCCN4)c3)n2)ccc1O` (stereo not drawn) [Chemistry 267], the inhibition at 50 µM in the assay with DU145, on Tel-Jak3 and at Tel-Jak2 was over 50% each time.

Source of the values: patent US7122550B2, “Protein kinase inhibitors” (Cytopia Pty Ltd, priority 2002, dated 2006).
